Reference: the NIST ThermoML archive (doi:10.1021/acs.jced.7b00944)
± gives the expanded uncertainty stated by the source.

Conditions: 298.2 K, 101.33 kPa, Liquid; for viscosity: Falling or rolling sphere viscometry; for mass density: Vibrating tube method

SMILES | viscosity | mass density
CCO [ethanol] | 1.04 ± 0.12 mPa·s | 786.1 ± 6 kg/m3
C=C(C)[C@H]1CC=C(C)CC1 [(R)-1-methyl-4-(1-methylethenyl)cyclohexene] | 0.972 ± 0.12 mPa·s | 840.73 ± 6 kg/m3
OCC(O)CO [glycerol] | 873.6 ± 140 mPa·s | 1257.7 ± 6.1 kg/m3
C=CC(C)(O)CCC=C(C)C (stereo not drawn) [3,7-dimethyl-1,6-octadien-3-ol] | 4.238 ± 0.51 mPa·s | 856.25 ± 6.1 kg/m3
